Assay: Example 3: phase 3 trial, enavogliflozin 0.3 mg vs dapagliflozin 10 mg once a day for 24 weeks added to metformin and gemigliptin in patients with type 2 diabetes (same endpoints, rescue drug)
Format: in vivo, human
Procedure: 1) when Metformin (≥1,000 mg/Day) was Administered at a Constant Dose for at Least 8 Weeks Prior to Pre-Visit (Pre-Screening) • Metformin (≥1,000 mg/day) and gemigliptin (50 mg/day) were co-administered during the 8-week stabilization period. […] 4) when Metformin (≥1,000 mg/Day) and Gemigliptin (50 mg/Day) were Co-Administered at Constant Doses for at Least 8 Weeks Prior to Pre-Visit (Prescreening) • Without a separate stabilization period, Pre-visit (pre-screening) was Visit 1 (screening).
Subjects who met the inclusion/exclusion criteria continued to receive metformin and gemigliptin while receiving a placebo of the clinical trial drug in a single-blind (subject-blinded) state for a 2-week run-in period.
Here, the randomized subjects were stratified according to the administration therapy (co-administration with two or less agents (one or two agents) or three or more agents) of a conventional hypoglycemic agent (before washout of another hypoglycemic agent) within 24 weeks prior to obtaining written informed consent and by an HbA1c value (<8% or ≥8%) at Visit 1 (screening) measured in the central laboratory.
The randomized subjects were administered two tablets of the clinical trial drug corresponding to each administration group once a day, and then visited the institution at weeks 6, 12, 18, and 24 during the 24-week administration period to conduct efficacy and safety assessments. In addition, during the clinical trial period, they were instructed to exercise regularly and control their diet without changing their daily life patterns.
• 1) Change in HbA1c at week 24 after administration of clinical trial drug compared to Visit 2 (randomization)
• 1) Change in HbA1c at each time point of weeks 6, 12, and 18 after administration of clinical trial drug compared to Visit 2 (randomization) • 2) Change in FPG at each time point of weeks 6, 12, 18, and 24 after administration of clinical trial drug compared to Visit 2 (randomization) • 3) Proportion of subjects achieving HbA1c<7% at each time point of weeks 6, 12, 18, and 24 after administration of clinical trial drug • 4) Proportion of subjects achieving HbA1c<6.5% at each time point of weeks 6, 12, 18, and 24 after administration of clinical trial drug • 5) Proportion of subjects achieving therapeutic response (HbA1c change (HbA1c at Visit 2—HbA1c at each evaluation time point)>0.5% or HbA1c<7% at each evaluation time point compared to Visit 2 (randomization)) at each time point of weeks 6, 12, 18, and 24 after administration of clinical trial drug • 6) Proportion of subjects achieving therapeutic response (HbA1c change (HbA1c at Visit 2—HbA1c at each evaluation time point)>0.7% or HbA1c<7% at each evaluation time point compared to Visit 2 (randomization)) at each time point of weeks 6, 12, 18, and 24 after administration of clinical trial drug • 7) Proportion of subjects achieving therapeutic response (HbA1c change (HbA1c at Visit 2—HbA1c at each evaluation time point)>1% or HbA1c<7% at each evaluation time point compared to Visit 2 (randomization)) at each time point of weeks 6, 12, 18, and 24 after administration of clinical trial drug

[1] = week 12, per-protocol set, enavogliflozin 0.3 mg, dapagliflozin 10 mg
[2] = week 18, modified per-protocol set 1, enavogliflozin 0.3 mg, dapagliflozin 10 mg
[3] = week 18, modified per-protocol set 2
[4] = week 18, modified per-protocol set 2, enavogliflozin 0.3 mg, dapagliflozin 10 mg

SMILES: CCOc1ccc(Cc2cc([C@@H]3O[C@H](CO)[C@@H](O)[C@H](O)[C@H]3O)ccc2Cl)cc1 [Dapagliflozin, reference compound]
- Subjects achieving HbA1c target of <7%, % [1]: 63.41%
- body weight, Median [1]: 63.20 kg
- Subjects achieving therapeutic glycemic response 1, % (week 12, per-protocol set, response 1 = HbA1c change >0.5% or HbA1c <7%, enavogliflozin 0.3 mg, dapagliflozin 10 mg): 89.43%
- Subjects achieving therapeutic glycemic response 2, % (week 12, per-protocol set, response 2 = HbA1c change >0.7% or HbA1c <7%, enavogliflozin 0.3 mg, dapagliflozin 10 mg): 82.11%
- Subjects achieving therapeutic glycemic response 3, % (week 12, per-protocol set, response 3 = HbA1c change >1% or HbA1c <7%, enavogliflozin 0.3 mg, dapagliflozin 10 mg): 73.98%
- FPG change from baseline, LS mean (SE) (week 18): −23.55(1.59) mg/dL
- HDL-C change from baseline, LS mean (SE) (week 18): 3.42(0.62) mg/dL
- HOMA-IR change from baseline, LS mean (SE) (week 18): −1.01(0.11)
- HOMA-β change from baseline, LS mean (SE) (week 18): 4.49(2.22)
- HbA1c change from baseline, LS mean (SE) (week 18): −0.75(0.04) % p
- LDL-C change from baseline, LS mean (SE) (week 18): 1.38(1.59) mg/dL
- UACR change from baseline, LS mean (SE) (week 18): −8.90(3.79) g/kg
- UGCR change from baseline, LS mean (SE) (week 18): 45.40(2.27) mg/mg
- adiponectin change from baseline, LS mean (SE) (week 18): 0.36(0.32) μg/mL
- body weight change from baseline, LS mean (SE) (week 18): −3.01(0.23) kg
- diastolic blood pressure change from baseline, LS mean (SE) (week 18): −2.42(0.68) mmHg
- fasting C-peptide change from baseline, LS mean (SE) (week 18): −0.06(0.02) ng/mL
- leptin change from baseline, LS mean (SE) (week 18): −1.06(0.51) ng/ml
- systolic blood pressure change from baseline, LS mean (SE) (week 18): −5.16(0.88) mmHg
- total cholesterol change from baseline, LS mean (SE) (week 18): 3.66(1.88) mg/dL
- triglyceride change from baseline, LS mean (SE) (week 18): −12.39(4.34) mg/dL
- Change from baseline in HDL-C, ANCOVA LS mean [2]: 3.42 mg/dL
- Change from baseline in HDL-C, Mean [2]: 3.57 mg/dL
- Change from baseline in HDL-C, Median [2]: 3.00 mg/dL
- Change from baseline in LDL-C, ANCOVA LS mean [2]: 1.38 mg/dL
- Change from baseline in LDL-C, Mean [2]: 0.93 mg/dL
- Change from baseline in LDL-C, Median [2]: 1.50 mg/dL
- Change from baseline in total cholesterol, ANCOVA LS mean [2]: 3.66 mg/dL
- Change from baseline in total cholesterol, Mean [2]: 2.51 mg/dL
- Change from baseline in total cholesterol, Median [2]: 1.00 mg/dL
- Change from baseline in triglycerides, ANCOVA LS mean [2]: -12.39 mg/dL
- Change from baseline in triglycerides, Mean [2]: -17.31 mg/dL
- Change from baseline in triglycerides, Median [2]: -8.50 mg/dL
- Fasting HDL-C, Mean [2]: 50.99 mg/dL
- Fasting HDL-C, Median [2]: 51.00 mg/dL
- Fasting LDL-C, Mean [2]: 78.33 mg/dL
- Fasting LDL-C, Median [2]: 73.00 mg/dL
- Fasting total cholesterol, Mean [2]: 146.31 mg/dL
- Fasting triglycerides, Mean [2]: 115.18 mg/dL
- Fasting triglycerides, Median [2]: 103.00 mg/dL
- fasting Total cholesterol, Median [2]: 141.00 mg/dL
- Change from baseline in diastolic blood pressure, ANCOVA LS mean [3]: −2.42 mmHg
- Change from baseline in diastolic blood pressure, Mean [3]: −2.12 mmHg
- Change from baseline in diastolic blood pressure, Median [3]: −2.00 mmHg
- Diastolic blood pressure, Mean [3]: 71.75 mmHg
- Diastolic blood pressure, Median [3]: 71.00 mmHg
- Change from baseline in systolic blood pressure, ANCOVA LS mean [4]: −5.16 mmHg
- Change from baseline in systolic blood pressure, Mean [4]: −4.63 mmHg
- Change from baseline in systolic blood pressure, Median [4]: −4.00 mmHg
- Systolic blood pressure, Mean [4]: 119.31 mmHg
- Systolic blood pressure, Median [4]: 118.00 mmHg

Reference: patent publication US20260130933A1, “PHARMACEUTICAL COMPOSITION FOR PREVENTION OR TREATMENT OF NEPHROPATHY AND/OR DIABETES MELLITUS, COMPRISING ENAVOGLIFLOZIN” (DAEWOONG PHARMACEUTICAL CO., LTD., priority 2022, published 2026)
